Reference: patent publication EP0968998A1, “Cosmetic compositions, ceramide analogues with anti-elastase activity and process for their preparation” (ELF ATOCHEM S.A., priority 1998, dated 2000)

Columns and labels:
stratum corneum [1] = assay: Skin barrier improvement: transepidermal (insensible) water loss (PIE), Servomed evaporimeter, cream applied to inner forearm; format: in vivo, volontaires sains ayant une peau sèche; details: for Perte Insensible en Eau (PIE) M±s: cream with 0,5 % (ex. 7, témoins), 1 % (ex. 4, 8), 5 % (ex. 6)
Excerpt: (§1) Les exemples qui suivent permettent d'illustrer l'invention. […] Les valeurs sont exprimées en nombre d'onde par centimètre. - Résonance magnétique nucléaire (RMN) Les spectres sont réalisés au moyen d'un appareil BRUCKER DRX 500, à 500 MHz (^1H) et 125 MHz (^13C) dans le DMSO-d6. La calibration de l'appareil est effectuée au moyen de DMSO. Les déplacements chimiques sont exprimés en ppm. […] On utilise le N-succinyl-(Ala)3-p-nitroanilide en solution dans le tétrahydrofurane et une solution d'élastase à 100 mg/ml dans un mélange de glycérol et de tampon acétate de sodium (50/50; v/v), pH5. L'activité de l'enzyme est mesurée à 37°C dans 100 mM de tampon Tris-HCI, pH8 contenant 0,01 % de Triton X-100 (volume/volume) et 0,02 % d'azide de sodium (poids/volume). Le céramide à tester, solubilisé dans le tétrahydrofurane (concentration en THF = 0,5 % en volume) est préincubé en présence de l'enzyme (0,05 mg/ml) dans le tampon pendant 5 minutes à 37°C. On ajoute le N-succinyl-(Ala)3-p-nitroanilide (concentration finale : 250 µM) et on mesure la libération de la p-nitroaniline dans une cuve en quartz par spectrophotométrie à 410 nm. La capacité inhibitrice du céramide est exprimée en pourcentage d'inhibition (% I) selon la relation : %I = (1 -(Vi)/(Vo))×100 [formula] dans laquelle Vi et Vo sont les vitesses d'apparition de la p-nitroaniline en présence et en absence d'inhibiteur respectivement. - Mesure de l'amélioration de la barrière cutanée a) mesure de la Perte Insensible en Eau (PIE) La mesure de la PIE permet de quantifier la très faible quantité d'eau qui diffuse passivement à travers le stratum corneum. Ce paramètre représente un très bon index de la fonction barrière du stratum corneum. Cette méthode est surtout utilisée pour contrôler l'efficacité de formules cosmétiques qui, contenant certains types de lipides sont capables de diminuer la PIE et, en conséquence, d'empêcher la déshydratation du stratum corneum. La sonde est laissée en contact de la peau pendant 2 minutes environ de façon à atteindre une position d'équilibre. PIE = D'(dP)/(dx)(gradient de pression de vapeur) [formula] Les valeurs sont exprimées en g/m^2/heure et permettent de calculer un delta de PIE = PIE (peau traitée) - PIE (peau témoin). L'appareil utilisé est un Evaporimètre EPI de Servomed. Les mesures sont effectuées sur deux groupes de 15 volontaires sains ayant une peau sèche, avant l'application du produit (t=0) et après l'application (t=0,5 heure, 1 heure, 3 heures et 6 heures) sur la face interne des deux avant-bras. L'analogue de céramide selon l'invention ou le céramide témoin est incorporé dans une crème ayant la composition suivante (en % en poids) :
(§2) La teneur en analogue de céramide dans la crème est égale à 0,5 % (exemple 7), 1 % (exemples 4 et 8) et 5 % (exemple 6), et celle des céramides témoins (a) et (b) est égale à 0,5 %. La diminution des valeurs de PIE signifie une amélioration de la qualité de la barrière cutanée qui traduit un meilleur pouvoir retentionnel de l'eau au niveau de la couche cornée et donc une meilleure hydratation. b) hydratation cutanée L'eau peut être considérée comme un dipôle électrique capable de conduire l'électricité. Le transport d'électricité dans un champ donné est proportionnel à la quantité d'eau présente dans le stratum corneum. Plus une peau est riche en eau et plus le courant électrique passe rapidement entre 2 électrodes. Il existe donc un lien entre l'hydratation du stratum corneum et les modifications des propriétés électriques. Les mesures de capacitance, liée à la constante diélectrique de la peau, sont réalisées par le Cornéomètre Courage+Khazaka CM 200, dont la sonde présente une surface de contact avec la peau de 49 mm^2; cette sonde est appliquée avec une pression constante sur la surface cutanée à mesurer, et l'indice d'hydratation directement proportionnel au taux hydrique de surface est instantané.

stratum corneum [2] = assay: Skin hydration: capacitance measurement (Corneometer Courage+Khazaka CM 200), hydration index, cream applied to forearm; format: in vivo, volontaires sains ayant une peau sèche; details: for Indice d'Hydratation (IH) M±s: cream with 0,5 % (ex. 7, témoins), 1 % (ex. 4, 8), 5 % (ex. 6)
Excerpt: as §1, §2

[3] = t=0 heure (before application, baseline)

| Molecule | Perte Insensible en Eau (PIE) M±s (stratum corneum [1]; t=0,5 heure after application) | Perte Insensible en Eau (PIE) M±s (stratum corneum [1]; [3]) | Perte Insensible en Eau (PIE) M±s (stratum corneum [1]; t=1 heure after application) | Perte Insensible en Eau (PIE) M±s (stratum corneum [1]; t=3 heures after application) | Perte Insensible en Eau (PIE) M±s (stratum corneum [1]; t=6 heures after application) | Indice d'Hydratation (IH) M±s (stratum corneum [2]; t=0,5 heure after application) | Indice d'Hydratation (IH) M±s (stratum corneum [2]; [3]) | Indice d'Hydratation (IH) M±s (stratum corneum [2]; t=1 heure after application) | Indice d'Hydratation (IH) M±s (stratum corneum [2]; t=3 heures after application) | Indice d'Hydratation (IH) M±s (stratum corneum [2]; t=6 heures after application) | Perte Insensible en Eau (PIE) % évol. (stratum corneum [1]; t=6 heures versus t=0) [%] | Indice d'Hydratation (IH) % évol. (stratum corneum [2]; t=3 heures versus t=0) [%] |
| --- | --- | --- | --- | --- | --- | --- | --- | --- | --- | --- | --- | --- |
| CCCCCCCCCCCCCCCCCC(=O)NC(C)(CO)COC(=O)CCCCCCCCCCCCCCCCC (stereo not shown) [Exemple 7, 1-stéaroyl-2-méthyl-2-stéaroylamino-1,3-propanediol] | 4,07±1,72 g/m^2/heure | 4,50±2,0 g/m^2/heure | 3,78±1,67 g/m^2/heure | 3,70±1,50 g/m^2/heure | 4,46±1,64 g/m^2/heure | 66,13±5,48 | 60,13±6,27 | 65,56±6,24 | 63,82±7,05 | 61,55±6,32 | – | – |
| N-stéaroyl-D,L-sphingosine [Témoin (a), reference compound] | 3,91±1,40 g/m^2/heure | 4,40±0,90 g/m^2/heure | 3,37±1,00 g/m^2/heure | 4,20±1,09 g/m^2/heure | 4,11±1,41 g/m^2/heure | 67,11±7,74 | 63,95±8,45 | 67,93±9,08 | 62,67±6,59 | 63,47±6,46 | – | – |
| CCCCCCCC/C=C\CCCCCCCC(=O)NC(CC)(CO)COC(=O)CCCCCCC/C=C\CCCCCCCC (stereo not shown) [Exemple 6, 1-oléoyl-2-éthyl-2-oléoylamino-1,3-propanediol] | 3,67±1,34 g/m^2/heure | 3,96±1,60 g/m^2/heure | 3,48±1,19 g/m^2/heure | 3,39±1,20 g/m^2/heure | 3,97±1,20 g/m^2/heure | 78,53±6,23 | 61,91±6,90 | 75,29±7,78 | 67,05±5,61 | 64,56±6,14 | 0 | – |
| CCCCCCCCCCCCCCCCCC(=O)NC(CO)(CO)COC(=O)CCCCCCCCCCCCCCCCC [Exemple 8, 1-stéaroyl-2-hydroxyméthyl-2-stéaroylamino-1,3-propanediol] | 4,28±1,38 g/m^2/heure | 4,52±1,02 g/m^2/heure | 3,12±1,11 g/m^2/heure | 4,62±1,14 g/m^2/heure | 4,55±1,39 g/m^2/heure | 67,16±7,98 | 64,13±8,01 | 67,04±7,74 | 64,13±8,37 | 64,87±7,83 | – | 0 |
| CCCCCCCCCCCCCCCCCC(=O)N[C@@H](CO)[C@H](O)[C@H](O)CCCCCCCCCCCCCC [Témoin (b), N-stéaroyl phytosphingosine, reference compound] | 4,09±1,86 g/m^2/heure | 4,22±2,17 g/m^2/heure | 3,80±1,75 g/m^2/heure | 3,53±1,57 g/m^2/heure | 4,36±1,82 g/m^2/heure | 67,55±7,89 | 61,00±7,21 | 67,45±7,33 | 63,20±5,36 | 61,36±3,79 | – | – |
